Common to all, as to type: ADME
Series [1] in a line: Activity at P-gp (unknown origin) expressed in baculovirus-infected HEK293 cells assessed as drug transport at 400 uM after 10 mins by reversed-phase HPLC analysis in presence of ATP. The note with it: human, hek293, 10 min.
In series [2] the target is Multidrug resistance-associated protein 1 (Homo sapiens, UniProt P33527). Description: Activity at MRP1 (unknown origin) expressed in baculovirus-infected HEK293 cells assessed as drug transport at 400 uM after 10 mins by reversed-phase HPLC analysis in presence of AMP. The note with it: hek293, 10 min, BLD = below limit of detection.
Multidrug resistance-associated protein 1, sequence (P33527 whole entry): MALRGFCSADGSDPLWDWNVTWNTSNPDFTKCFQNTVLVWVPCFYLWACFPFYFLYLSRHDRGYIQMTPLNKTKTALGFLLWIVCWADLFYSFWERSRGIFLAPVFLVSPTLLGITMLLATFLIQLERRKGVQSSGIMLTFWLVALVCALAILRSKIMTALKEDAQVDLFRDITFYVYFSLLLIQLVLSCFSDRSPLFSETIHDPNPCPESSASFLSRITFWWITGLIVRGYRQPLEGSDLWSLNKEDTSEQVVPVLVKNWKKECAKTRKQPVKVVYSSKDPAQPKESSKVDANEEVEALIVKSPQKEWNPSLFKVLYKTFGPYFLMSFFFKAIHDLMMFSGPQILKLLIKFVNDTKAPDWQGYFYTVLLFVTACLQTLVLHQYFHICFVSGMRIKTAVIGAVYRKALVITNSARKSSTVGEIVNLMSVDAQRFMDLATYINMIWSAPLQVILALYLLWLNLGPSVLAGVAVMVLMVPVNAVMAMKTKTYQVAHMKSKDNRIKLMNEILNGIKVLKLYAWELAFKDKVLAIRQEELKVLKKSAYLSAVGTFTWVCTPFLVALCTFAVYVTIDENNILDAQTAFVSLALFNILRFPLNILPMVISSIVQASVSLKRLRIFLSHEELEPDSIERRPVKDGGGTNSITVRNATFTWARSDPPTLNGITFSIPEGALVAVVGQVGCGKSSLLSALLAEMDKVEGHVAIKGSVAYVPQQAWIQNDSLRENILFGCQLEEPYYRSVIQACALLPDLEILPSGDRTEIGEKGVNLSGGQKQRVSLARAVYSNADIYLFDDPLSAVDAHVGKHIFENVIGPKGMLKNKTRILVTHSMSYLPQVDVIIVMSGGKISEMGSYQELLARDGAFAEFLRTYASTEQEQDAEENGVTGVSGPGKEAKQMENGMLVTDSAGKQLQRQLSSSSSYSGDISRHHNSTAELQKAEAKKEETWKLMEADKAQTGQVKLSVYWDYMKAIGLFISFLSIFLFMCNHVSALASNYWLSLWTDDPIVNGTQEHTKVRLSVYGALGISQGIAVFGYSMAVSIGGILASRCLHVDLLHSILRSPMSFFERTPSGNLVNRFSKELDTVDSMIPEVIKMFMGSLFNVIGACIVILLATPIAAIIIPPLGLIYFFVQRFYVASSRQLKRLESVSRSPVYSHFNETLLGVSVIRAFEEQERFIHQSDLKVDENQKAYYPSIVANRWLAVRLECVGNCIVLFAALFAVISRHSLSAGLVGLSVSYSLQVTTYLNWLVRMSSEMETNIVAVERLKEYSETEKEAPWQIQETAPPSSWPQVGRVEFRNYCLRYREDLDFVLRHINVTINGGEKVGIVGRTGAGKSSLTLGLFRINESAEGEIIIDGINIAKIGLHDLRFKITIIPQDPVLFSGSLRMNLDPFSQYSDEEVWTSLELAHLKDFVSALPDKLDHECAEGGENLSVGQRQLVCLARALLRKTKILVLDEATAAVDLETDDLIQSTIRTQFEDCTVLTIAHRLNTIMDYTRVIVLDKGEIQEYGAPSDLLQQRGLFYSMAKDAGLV
Series [3] deals with ATP-binding cassette sub-family C member 2 (Homo sapiens, UniProt Q92887). Description: Activity at MRP2 (unknown origin) expressed in baculovirus-infected HEK293 cells assessed as drug transport at 400 uM after 10 mins by reversed-phase HPLC analysis in presence of AMP. The note with it: hek293, 10 min, BLD = below limit of detection.
ATP-binding cassette sub-family C member 2, sequence (Q92887 whole entry): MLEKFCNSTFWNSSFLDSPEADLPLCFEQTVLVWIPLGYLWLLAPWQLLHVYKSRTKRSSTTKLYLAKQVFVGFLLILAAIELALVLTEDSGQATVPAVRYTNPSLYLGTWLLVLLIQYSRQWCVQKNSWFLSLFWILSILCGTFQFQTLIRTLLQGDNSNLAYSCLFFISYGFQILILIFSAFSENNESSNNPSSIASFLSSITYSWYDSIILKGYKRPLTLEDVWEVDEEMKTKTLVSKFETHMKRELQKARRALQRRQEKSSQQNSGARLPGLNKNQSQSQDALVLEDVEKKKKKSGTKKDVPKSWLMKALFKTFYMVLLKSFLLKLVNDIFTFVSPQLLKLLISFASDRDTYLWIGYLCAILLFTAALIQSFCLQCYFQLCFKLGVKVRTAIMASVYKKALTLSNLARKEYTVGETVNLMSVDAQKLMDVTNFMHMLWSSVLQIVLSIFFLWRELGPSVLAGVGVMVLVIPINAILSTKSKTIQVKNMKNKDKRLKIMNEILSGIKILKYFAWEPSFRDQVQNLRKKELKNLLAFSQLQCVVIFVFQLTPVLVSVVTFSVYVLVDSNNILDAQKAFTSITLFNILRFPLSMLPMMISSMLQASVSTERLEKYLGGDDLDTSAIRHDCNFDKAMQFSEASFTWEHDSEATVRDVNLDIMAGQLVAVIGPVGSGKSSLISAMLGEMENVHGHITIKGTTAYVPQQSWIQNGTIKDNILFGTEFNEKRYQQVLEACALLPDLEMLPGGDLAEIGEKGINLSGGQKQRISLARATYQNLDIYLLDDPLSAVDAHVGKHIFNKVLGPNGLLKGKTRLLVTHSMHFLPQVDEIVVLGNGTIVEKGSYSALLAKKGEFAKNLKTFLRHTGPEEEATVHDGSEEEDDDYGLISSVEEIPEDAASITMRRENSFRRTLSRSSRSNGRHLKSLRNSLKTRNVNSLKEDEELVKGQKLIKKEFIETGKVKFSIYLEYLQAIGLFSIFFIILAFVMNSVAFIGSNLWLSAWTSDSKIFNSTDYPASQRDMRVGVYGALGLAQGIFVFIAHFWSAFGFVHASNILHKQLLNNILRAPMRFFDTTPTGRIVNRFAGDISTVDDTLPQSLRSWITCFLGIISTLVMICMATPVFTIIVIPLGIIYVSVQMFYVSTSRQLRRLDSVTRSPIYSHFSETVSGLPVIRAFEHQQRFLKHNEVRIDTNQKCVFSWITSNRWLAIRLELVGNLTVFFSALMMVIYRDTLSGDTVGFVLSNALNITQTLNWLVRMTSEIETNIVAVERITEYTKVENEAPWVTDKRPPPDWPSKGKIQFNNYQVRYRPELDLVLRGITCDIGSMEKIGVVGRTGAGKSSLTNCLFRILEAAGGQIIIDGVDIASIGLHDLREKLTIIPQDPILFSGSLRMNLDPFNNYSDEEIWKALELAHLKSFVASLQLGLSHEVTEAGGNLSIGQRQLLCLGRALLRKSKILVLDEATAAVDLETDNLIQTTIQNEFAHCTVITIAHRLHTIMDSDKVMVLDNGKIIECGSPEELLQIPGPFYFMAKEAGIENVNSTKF
The target of series [4] is ATP-binding cassette sub-family C member 3 (Homo sapiens, UniProt O15438). Description: Activity at MRP3 (unknown origin) expressed in baculovirus-infected HEK293 cells assessed as drug transport at 400 uM after 10 mins by reversed-phase HPLC analysis in presence of AMP. The note with it: hek293, 10 min, BLD = below limit of detection.
ATP-binding cassette sub-family C member 3, sequence (O15438 whole entry): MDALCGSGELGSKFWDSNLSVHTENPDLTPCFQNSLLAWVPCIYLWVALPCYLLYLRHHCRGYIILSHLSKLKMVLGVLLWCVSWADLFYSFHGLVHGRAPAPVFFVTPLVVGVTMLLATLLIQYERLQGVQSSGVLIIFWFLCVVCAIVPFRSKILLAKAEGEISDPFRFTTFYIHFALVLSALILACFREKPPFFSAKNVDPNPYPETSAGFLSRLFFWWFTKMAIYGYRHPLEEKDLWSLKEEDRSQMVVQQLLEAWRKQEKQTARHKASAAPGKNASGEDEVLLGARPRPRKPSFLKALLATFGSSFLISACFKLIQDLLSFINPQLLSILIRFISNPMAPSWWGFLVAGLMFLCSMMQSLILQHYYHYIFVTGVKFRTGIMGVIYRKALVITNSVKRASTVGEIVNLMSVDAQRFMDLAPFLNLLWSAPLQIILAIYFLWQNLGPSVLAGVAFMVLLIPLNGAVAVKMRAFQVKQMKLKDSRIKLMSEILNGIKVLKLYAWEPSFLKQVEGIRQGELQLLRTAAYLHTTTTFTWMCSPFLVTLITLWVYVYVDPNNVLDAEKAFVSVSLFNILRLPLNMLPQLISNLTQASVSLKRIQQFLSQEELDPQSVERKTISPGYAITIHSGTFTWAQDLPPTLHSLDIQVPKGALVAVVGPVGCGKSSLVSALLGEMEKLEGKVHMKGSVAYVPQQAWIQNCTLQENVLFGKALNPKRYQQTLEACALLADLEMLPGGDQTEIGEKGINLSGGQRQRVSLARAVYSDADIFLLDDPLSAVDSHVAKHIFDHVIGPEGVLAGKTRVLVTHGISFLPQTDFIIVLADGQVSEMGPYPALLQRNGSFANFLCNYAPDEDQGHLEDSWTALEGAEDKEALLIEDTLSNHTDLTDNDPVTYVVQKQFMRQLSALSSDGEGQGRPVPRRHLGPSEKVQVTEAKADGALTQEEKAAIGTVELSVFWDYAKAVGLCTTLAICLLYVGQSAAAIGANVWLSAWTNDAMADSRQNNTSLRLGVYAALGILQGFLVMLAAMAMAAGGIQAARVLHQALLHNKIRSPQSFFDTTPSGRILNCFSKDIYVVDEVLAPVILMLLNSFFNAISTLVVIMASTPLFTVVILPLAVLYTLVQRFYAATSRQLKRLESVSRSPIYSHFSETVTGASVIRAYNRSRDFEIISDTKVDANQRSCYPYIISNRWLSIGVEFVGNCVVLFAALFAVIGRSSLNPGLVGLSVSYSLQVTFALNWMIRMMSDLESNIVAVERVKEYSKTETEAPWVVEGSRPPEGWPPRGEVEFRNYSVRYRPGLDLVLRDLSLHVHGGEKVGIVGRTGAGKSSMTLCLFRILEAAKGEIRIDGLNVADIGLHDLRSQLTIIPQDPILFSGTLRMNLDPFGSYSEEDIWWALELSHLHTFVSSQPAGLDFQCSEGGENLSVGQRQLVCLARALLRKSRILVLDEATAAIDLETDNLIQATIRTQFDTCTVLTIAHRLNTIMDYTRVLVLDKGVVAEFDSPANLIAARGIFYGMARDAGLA
Series [5] concerns the target T1, ATP-binding cassette sub-family C member 4 (Homo sapiens, UniProt O15439).
T1 sequence (O15439 whole entry): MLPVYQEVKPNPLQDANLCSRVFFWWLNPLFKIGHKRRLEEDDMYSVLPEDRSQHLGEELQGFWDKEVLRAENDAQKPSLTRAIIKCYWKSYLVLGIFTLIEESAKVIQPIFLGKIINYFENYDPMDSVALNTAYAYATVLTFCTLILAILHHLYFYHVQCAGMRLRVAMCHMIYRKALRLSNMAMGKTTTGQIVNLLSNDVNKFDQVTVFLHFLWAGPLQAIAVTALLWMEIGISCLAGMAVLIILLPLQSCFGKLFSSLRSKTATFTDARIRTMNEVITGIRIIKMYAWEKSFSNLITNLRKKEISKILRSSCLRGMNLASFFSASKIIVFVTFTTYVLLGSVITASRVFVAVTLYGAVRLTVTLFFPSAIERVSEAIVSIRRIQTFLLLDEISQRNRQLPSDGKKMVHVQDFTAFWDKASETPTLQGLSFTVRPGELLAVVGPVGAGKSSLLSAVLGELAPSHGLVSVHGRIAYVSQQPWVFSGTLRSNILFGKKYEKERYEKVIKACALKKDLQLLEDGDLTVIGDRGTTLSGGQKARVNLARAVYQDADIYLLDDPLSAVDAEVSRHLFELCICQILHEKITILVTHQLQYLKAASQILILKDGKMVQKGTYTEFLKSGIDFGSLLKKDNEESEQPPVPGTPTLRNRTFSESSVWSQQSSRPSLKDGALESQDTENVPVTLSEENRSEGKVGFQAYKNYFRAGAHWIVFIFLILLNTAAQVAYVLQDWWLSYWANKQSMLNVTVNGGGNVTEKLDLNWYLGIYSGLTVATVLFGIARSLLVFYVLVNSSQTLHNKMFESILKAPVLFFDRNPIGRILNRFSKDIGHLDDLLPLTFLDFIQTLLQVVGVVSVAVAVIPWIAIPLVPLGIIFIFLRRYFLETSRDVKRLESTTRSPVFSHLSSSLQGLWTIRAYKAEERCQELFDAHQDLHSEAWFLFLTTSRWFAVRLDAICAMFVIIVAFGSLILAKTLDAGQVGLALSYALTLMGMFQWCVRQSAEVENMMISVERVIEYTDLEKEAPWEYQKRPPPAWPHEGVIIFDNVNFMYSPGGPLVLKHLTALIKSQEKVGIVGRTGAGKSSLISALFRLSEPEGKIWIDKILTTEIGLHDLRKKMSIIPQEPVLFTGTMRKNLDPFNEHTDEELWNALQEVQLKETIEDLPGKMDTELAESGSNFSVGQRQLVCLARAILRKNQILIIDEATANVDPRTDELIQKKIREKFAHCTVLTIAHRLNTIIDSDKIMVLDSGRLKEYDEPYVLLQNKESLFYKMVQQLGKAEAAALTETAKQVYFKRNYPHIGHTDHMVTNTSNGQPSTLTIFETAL
Description: Activity at MRP4 (unknown origin) expressed in baculovirus-infected HEK293 cells assessed as drug transport at 400 uM after 10 mins by reversed-phase HPLC analysis in presence of AMP. To be noted: hek293, 10 min, BLD = below limit of detection.

Series [6] concerns the target T2, Broad substrate specificity ATP-binding cassette transporter ABCG2 (Homo sapiens, UniProt Q9UNQ0).
T2 sequence (Q9UNQ0 whole entry): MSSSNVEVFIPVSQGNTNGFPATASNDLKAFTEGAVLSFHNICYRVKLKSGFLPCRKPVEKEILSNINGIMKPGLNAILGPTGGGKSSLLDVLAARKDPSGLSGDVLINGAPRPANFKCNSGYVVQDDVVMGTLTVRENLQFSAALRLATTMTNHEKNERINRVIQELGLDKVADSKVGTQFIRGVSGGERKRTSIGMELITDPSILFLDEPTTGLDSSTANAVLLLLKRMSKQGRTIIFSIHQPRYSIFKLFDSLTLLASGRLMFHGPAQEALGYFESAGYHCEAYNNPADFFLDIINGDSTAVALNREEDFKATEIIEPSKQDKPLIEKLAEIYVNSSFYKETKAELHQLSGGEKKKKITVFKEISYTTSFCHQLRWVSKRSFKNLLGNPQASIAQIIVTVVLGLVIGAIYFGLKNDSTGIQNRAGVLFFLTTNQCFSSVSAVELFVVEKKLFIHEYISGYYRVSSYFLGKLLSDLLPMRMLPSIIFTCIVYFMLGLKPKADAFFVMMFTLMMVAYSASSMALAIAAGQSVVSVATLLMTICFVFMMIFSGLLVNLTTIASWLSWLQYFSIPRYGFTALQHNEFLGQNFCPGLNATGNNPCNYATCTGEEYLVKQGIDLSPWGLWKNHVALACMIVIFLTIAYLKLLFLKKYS
Description: Activity at BCRP (unknown origin) expressed in baculovirus-infected HEK293 cells assessed as drug transport at 400 uM after 10 mins by reversed-phase HPLC analysis in presence of AMP. The note with it: hek293, 10 min, BLD = below limit of detection.

Series [7] in a line: Activity at P-gp (unknown origin) expressed in baculovirus-infected HEK293 cells assessed as drug transport at 400 uM after 10 mins by reversed-phase HPLC analysis in presence of AMP. The note with it: human, hek293, 10 min, BLD = below limit of detection.

Take `O=C(O)[C@H]1O[C@@H](Oc2ccc3ccc(=O)oc3c2)[C@H](O)[C@@H](O)[C@@H]1O`: the Drug transport entry is “Not Active” in series [1]; “BLD” in series [2]; “BLD” in series [3]; “BLD” in series [4]; “BLD” in series [5]; “BLD” in series [6]. For the same compound, the Drug transport entry in series [7] is “BLD”.

Source of the values: ChEMBL document CHEMBL3526030, “Transport of the coumarin metabolite 7-hydroxycoumarin glucuronide is mediated via multidrug resistance-associated proteins 3 and 4” (Drug Metab Dispos, 2012).
